Assay results as given in ChEMBL document CHEMBL3351327, “Synthesis of some novel hydrazone and 2-pyrazoline derivatives: monoamine oxidase inhibitory activities and docking studies” (Bioorg Med Chem Lett, 2014).

How the values were obtained:
[1] = target: T1, Amine oxidase [flavin-containing] B (Homo sapiens, UniProt P27338); assay: biochemical; assay type: cell-based
T1 sequence (P27338 whole entry): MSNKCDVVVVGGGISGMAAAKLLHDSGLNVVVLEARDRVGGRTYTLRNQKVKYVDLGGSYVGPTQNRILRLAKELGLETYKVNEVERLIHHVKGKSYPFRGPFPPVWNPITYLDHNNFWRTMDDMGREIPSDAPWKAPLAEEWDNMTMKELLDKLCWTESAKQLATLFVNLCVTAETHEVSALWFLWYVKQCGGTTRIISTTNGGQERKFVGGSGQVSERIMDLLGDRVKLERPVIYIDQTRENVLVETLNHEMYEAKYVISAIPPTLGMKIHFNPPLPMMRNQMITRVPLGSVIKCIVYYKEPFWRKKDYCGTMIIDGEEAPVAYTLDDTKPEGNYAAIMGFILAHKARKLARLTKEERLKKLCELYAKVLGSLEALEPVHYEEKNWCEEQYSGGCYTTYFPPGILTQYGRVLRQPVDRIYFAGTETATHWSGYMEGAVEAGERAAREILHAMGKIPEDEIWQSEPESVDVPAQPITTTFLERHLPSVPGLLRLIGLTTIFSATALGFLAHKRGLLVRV
Description: Inhibition of human MAOB expressed in baculovirus-infected BTI insect cells assessed as H2O2 production by resorufin dye based fluorimetric method

[2] = target: T2, Amine oxidase [flavin-containing] A (Homo sapiens, UniProt P21397); assay: biochemical; assay type: cell-based
T2 sequence (P21397 whole entry): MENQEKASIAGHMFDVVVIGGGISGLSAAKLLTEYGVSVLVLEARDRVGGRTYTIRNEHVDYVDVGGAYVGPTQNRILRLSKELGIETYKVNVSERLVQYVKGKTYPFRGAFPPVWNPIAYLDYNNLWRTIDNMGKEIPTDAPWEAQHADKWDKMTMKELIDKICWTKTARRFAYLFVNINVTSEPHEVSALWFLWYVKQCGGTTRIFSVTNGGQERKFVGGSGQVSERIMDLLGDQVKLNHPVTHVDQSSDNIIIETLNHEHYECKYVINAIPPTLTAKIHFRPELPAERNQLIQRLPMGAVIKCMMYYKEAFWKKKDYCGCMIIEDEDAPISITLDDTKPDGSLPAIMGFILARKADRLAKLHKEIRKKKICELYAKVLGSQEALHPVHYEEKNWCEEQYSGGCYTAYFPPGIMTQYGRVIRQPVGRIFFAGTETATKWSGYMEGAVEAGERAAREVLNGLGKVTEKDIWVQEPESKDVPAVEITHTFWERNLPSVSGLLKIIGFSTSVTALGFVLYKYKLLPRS
Description: Inhibition of human MAOA expressed in baculovirus-infected BTI insect cells assessed as H2O2 production by resorufin dye based fluorimetric method

## Cc1ccc(/C=C/C(=O)c2cc(Cl)ccc2O)cc1
[1]
  Ki: 7.22 µM
[2]
  Ki: 0.14 µM

## COc1ccc(/C=C/C(=N/NC(=O)c2snnc2C)c2ccc(Cl)cc2)cc1
[1]
  Ki: 1.05 µM
[2]
  Ki: 0.012 µM

## Cc1ccc([C@H]2CC(c3cc(Cl)ccc3O)=NN2C(=O)c2snnc2C)cc1
[1]
  Ki: 72 µM
[2]
  Ki: 0.24 µM

## COc1ccc(/C=C/C(=N\NC(=O)c2ccco2)c2ccc(Br)cc2)cc1
[1]
  Ki: 0.7 µM
[2]
  Ki: 0.091 µM

## Cc1ccc([C@H]2CC(c3cc(Cl)ccc3O)=NN2C(=O)c2ccccc2)cc1
[1]
  Ki: 0.75 µM
[2]
  Ki: 0.012 µM

## Cc1ccc(/C=C/C(=O)c2ccc(O)cc2)cc1
[2]
  Ki: 0.6 µM

## COc1ccc(/C=C/C(=N\NC(=O)c2ccc(OC)cc2)c2ccc(Cl)cc2)cc1
[2]
  Ki: 0.034 µM

## COc1ccc(C(=O)/C=C/c2ccc(C)cc2)cc1
[1]
  Ki: 14.9 µM
[2]
  Ki: 0.56 µM

## COc1ccc(/C=C/C(=N\NC(=O)c2ccc(OC)cc2)c2ccc(Br)cc2)cc1
[1]
  Ki: 0.98 µM
[2]
  Ki: 0.045 µM

## Cc1ccc(/C=C/C(=N/NC(=O)c2snnc2C)c2ccc(Cl)cc2)cc1
[1]
  Ki: 0.76 µM
[2]
  Ki: 0.012 µM

## COc1ccc(C(/C=C/c2ccc(C)cc2)=N\NC(=O)c2snnc2C)cc1
[1]
  Ki: 0.9 µM
[2]
  Ki: 0.041 µM

## Cc1ccc([C@H]2CC(c3cc(Br)ccc3O)=NN2C(=O)c2ccco2)cc1
[1]
  Ki: 14 µM
[2]
  Ki: 0.45 µM

## Cc1ccc(/C=C/C(=O)c2ccc(Cl)cc2)cc1
[1]
  Ki: 7.7 µM
[2]
  Ki: 0.24 µM

## Cc1ccc([C@H]2CC(c3cc(Cl)ccc3O)=NN2C(=O)c2ccco2)cc1
[1]
  Ki: 0.99 µM
[2]
  Ki: 0.11 µM

## Cc1ccc([C@H]2CC(c3cc(Cl)ccc3O)=NN2C(=O)c2ccncc2)cc1
[1]
  Ki: 5.23 µM
[2]
  Ki: 0.6 µM

## COc1ccc(/C=C/C(=O)c2ccc(Cl)cc2)cc1
[1]
  Ki: 13.9 µM
[2]
  Ki: 0.24 µM

## Cc1ccc(/C=C/C(=O)c2cc(Br)ccc2O)cc1
[1]
  Ki: 4.22 µM
[2]
  Ki: 0.13 µM

## Cc1ccc(/C=C/C(=N\NC(=O)c2cccs2)c2ccc(Cl)cc2)cc1
[1]
  Ki: 0.52 µM
[2]
  Ki: 0.034 µM

## COc1ccc(C(=O)N2N=C(c3cc(Cl)ccc3O)C[C@@H]2c2ccc(C)cc2)cc1
[2]
  Ki: 4.67 µM

## Cc1ccc([C@H]2CC(c3cc(Br)ccc3O)=NN2C(=O)c2ccccc2)cc1
[2]
  Ki: 0.04 µM

## Cc1ccc(/C=C/C(=N/NC(=O)c2snnc2C)c2ccc(O)cc2)cc1
[1]
  Ki: 1.48 µM
[2]
  Ki: 0.01 µM

## COc1ccc(C(=O)N2N=C(c3cc(Br)ccc3O)C[C@@H]2c2ccc(C)cc2)cc1
[2]
  Ki: 79.2 µM

## Cc1ccc([C@H]2CC(c3cc(Br)ccc3O)=NN2C(=O)c2ccncc2)cc1
[1]
  Ki: 2 µM
[2]
  Ki: 0.18 µM

## Cc1cccc(/C=C/C(=O)c2ccc(Cl)cc2)c1
[1]
  Ki: 7 µM
[2]
  Ki: 0.16 µM

## COc1ccc(/C=C/C(=O)c2ccc(Br)cc2)cc1
[1]
  Ki: 5.55 µM
[2]
  Ki: 0.1 µM

## Cc1cccc(/C=C/C(=N/NC(=O)c2snnc2C)c2ccc(Cl)cc2)c1
[1]
  Ki: 0.99 µM
[2]
  Ki: 0.01 µM

## Cc1ccc([C@H]2CC(c3cc(Br)ccc3O)=NN2C(=O)c2cccs2)cc1
[1]
  Ki: 1640 µM
[2]
  Ki: 0.13 µM
